Molecules are shown by their SMILES.

This note sets out measurements from US5084449A, “Anti-bacterial compositions comprising a substituted bis-(4-aminophenyl)-sulfone and a dihydro-folic acid reductase” (Dr. Karl Thomae GmbH, priority 1984, dated 1992).

For the first data set, the system named is 7,8-dihydropteroic acid-synthetase. As to the kind of experiment: inhibiting effect on 7,8-dihydropteroic acid synthesis in cell-free enzyme extract of plasmodia (HPLC). It counts as biochemical. Particulars: concentration giving 50% reduction of 7,8-dihydropteroic acid synthesis; cell-free enzyme extract of Plasmodium berghei; incubation 4 hours; HPLC/UV; read-out: i50. As for the experimental part:
M=4'-Amino-2-methyl-4-propylamino-diphenylsulfone were tested for their biological activity in cell-free enzyme extract of Plasmodiumberghei as follows.
Plasmodia are isolated from mouse blood infected with Plasmodium berghei in accordance with the following reference (Heidrich, H. -G. et al., Z. Parasitenkd. 59: 151 (1979). The plasmodia were opened by ultrasound. Proteins with […] acid synthetase activity are concentrated by gel filtration.
The inhibiting effect on 7,8-dihydropteroic acid synthesis of plasmodia is determined as follows:
Under optimum reaction conditions, i.e. Vmax for the reaction which is to be inhibited, the concentration of inhibitor in the new compounds resulting in a 50% reduction in the enzyme synthesis performance is determined. For this purpose the quantity of 7,8-dihydropteroic acid synthesised from the enzyme extract is determined by means of high performance liquid chromatography (HPLC) using a UV detector after an incubation period of 4 hours. It was established that the synthesis of 7,8-dihydropteroic acid proceeded in a linear manner during this period.
The i50 values obtained by this method for a selection of the compounds claimed and those of the comparison preparations bis (4-aminophenyl)sulfone (Dapsone®, DDS) and N^1 -(5,6-dimethoxy-4-pyrimidinyl)-sulfanilamide (Fanasil®) are given in the following Table: […]
For the molecule `CN(C)c1cc(N)ccc1S(=O)(=O)c1ccc(N)cc1` [Substance G, 4,4'-Diamino-2-(N,N-dimethylamino)-diphenylsulfone], the IC50 was determined as 12.9 µM.

As for `CNc1ccc(S(=O)(=O)c2ccc(N)cc2)c(C)c1` [Substance L, 4'-Amino-2-methyl-4-methylamino-diphenylsulfone], the IC50 turned out to be 2.94 µM.

As for `Nc1ccc(S(=O)(=O)c2ccc(N)cc2CO)cc1` [Substance E, 4,4'-Diamino-2-hydroxymethyl-diphenylsulfone], the IC50 stood at 4.9 µM.

Regarding `CNc1cc(N)ccc1S(=O)(=O)c1ccc(N)cc1` [Substance H, 4,4'-Diamino-2-(N-methylamino)-diphenylsulfone], the IC50 amounted to 4.1 µM.

Consider `CC(=O)c1cc(N)ccc1S(=O)(=O)c1ccc(N)cc1` [Substance K, 4,4'-Diamino-2-methylcarbonyl-diphenylsulfone], for which the IC50 stood at 12.9 µM.

Consider `CCCNc1ccc(S(=O)(=O)c2ccc(N)cc2)c(C)c1` [Substance M, 4'-Amino-2-methyl-4-propylamino-diphenylsulfone], for which the IC50 came out at 2.44 µM.

Regarding `N#Cc1cc(N)ccc1S(=O)(=O)c1ccc(N)cc1` [Substance I, 4,4'-Diamino-2-cyano-diphenylsulfone], the IC50 is 12.5 µM.

With `CCNc1ccc(S(=O)(=O)c2ccc(N)cc2)c(Cl)c1` [Substance A, 4-Ethylamino-4'-amino-2-chloro-diphenylsulfone], the IC50 was found to be 2.1 µM.

As for `Nc1ccc(S(=O)(=O)c2ccc(N)cc2)cc1` [Dapsone ®, bis (4-aminophenyl)sulfone, reference compound], the IC50 worked out at 12.4 µM.

On to `CCNc1ccc(S(=O)(=O)c2ccc(N)cc2)c(C(F)(F)F)c1` [Substance D, 4-Ethylamino-4'-amino-2-trifluoromethyl-diphenyl-sulfone], for which the IC50 is 5.86 µM.

Take `COc1ncnc(NS(=O)(=O)c2ccc(N)cc2)c1OC` [Fanasil ®, N^1-(5,6-dimethoxy-4-pyrimidinyl)-sulfanilamide, reference compound]: the IC50 was 200 µM.

Consider `CC(O)c1cc(N)ccc1S(=O)(=O)c1ccc(N)cc1` (stereo not shown) [Substance F, 4,4'-Diamino-2-(1-hydroxyethyl)-diphenylsulfone], for which the IC50 was 10.4 µM.

In the case of `CC(C)Nc1ccc(S(=O)(=O)c2ccc(N)cc2)c(Cl)c1` [Substance B, 4'-Amino-2-chloro-4-isopropylamino-diphenylsulfone], the IC50 was 2.67 µM.

Consider `CCNc1ccc(S(=O)(=O)c2ccc(N)cc2)c(C)c1` [Substance C, 4-Ethylamino-4'-amino-2-methyl-diphenylsulfone], for which the IC50 was determined as 2.62 µM.

Tested on in a further data set: not listed separately
As to the kind of experiment: methemoglobin formation after oral administration to cats. It counts as in vivo. Particulars: 200 mg/kg by oral route. An excerpt:
Moreover, in contrast to Dapsone®, the new compounds are well tolerated and in particular show a very low methemoglobin formulation.
Regarding `CCCNc1ccc(S(=O)(=O)c2ccc(N)cc2)c(C)c1` [Substance M, 4'-Amino-2-methyl-4-propylamino-diphenylsulfone], the methemoglobin formulation entry is “no methemoglobin formulation is detected”.

As for `N#Cc1cc(N)ccc1S(=O)(=O)c1ccc(N)cc1` [Substance I, 4,4'-Diamino-2-cyano-diphenylsulfone], the methemoglobin formulation result was “no methemoglobin formulation is detected”.
